# Results as given in patent US12622948B2 (SUN PHARMACEUTICAL INDUSTRIES LIMITED, priority 2020, dated 2026).
# Marks after values point to notes of the source that are not given here. Starred links: 1 amine or outer side, 2 acyl side, 3 side chain; linkers in the order of their positions; H or OH if unused. Non-standard residues stand in square brackets, D forms with d. Residues, ends and D or L forms follow the SMILES beside them. Groups on a side chain read outwards from the residue. No end group written: not given here. *: point of attachment. C20 diacid = O=C(O)CCCCCCCCCCCCCCCCCCC(=O)*; γGlu = O=C(O)[C@H](CCC(=O)[*:2])N[*:1]; Moiety A = not defined here; Nva = CCC[C@H](N)C(=O)O; AEEA = NCCOCCOCC(=O)O; Aib = CC(C)(N)C(=O)O
# System: type 2 diabetic mouse (db/db) model
# Experiment: Efficacy study in db/db mice at 10 nM/kg dose (blood glucose, body weight, food intake)
# Type: in vivo
# Conditions: for Cumulative food Intake (g) 0-48 hr. vs. Baseline, Mean / Cumulative food Intake (g) 0-96 hr. vs. Baseline, Mean / Delta Blood Glucose (mM) Mean / Body Wt. Change (%) 48 hr. vs. Baseline, Mean / Body Wt. Change (%) 96 hr. vs. Baseline, Mean: 10 nM/kg s.c. single dose; for blood glucose reduction / body weight reduction / reduction in food consumption: db/db mice, 10 nM/kg s.c., vs diabetic control
# Procedure: The effect of compounds of present invention on blood glucose, food intake and body weight was studied in mice. This study was performed in a type 2 diabetic mouse (db/db) model. […] Baseline blood glucose was measured from all the animals. […] All the animals were administered with test items subcutaneously. […] Delta blood glucose (mM) was calculated.
# [1] = Study 4, db/db mice, 0 hr (baseline)
# [2] = Study 2, db/db mice, 0 hr (baseline)
Compound,"Cumulative food Intake (g) 0-48 hr. vs. Baseline, Mean (Study 4, db/db mice)","Cumulative food Intake (g) 0-96 hr. vs. Baseline, Mean (Study 4, db/db mice)",Delta Blood Glucose (mM) Mean [1] [mM],"Delta Blood Glucose (mM) Mean (Study 4, db/db mice, 4 hr)","Delta Blood Glucose (mM) Mean (Study 4, db/db mice, 8 hr)","Cumulative food Intake (g) 0-48 hr. vs. Baseline, Mean (Study 2, db/db mice)","Cumulative food Intake (g) 0-96 hr. vs. Baseline, Mean (Study 2, db/db mice)",Delta Blood Glucose (mM) Mean [2] [mM],"Delta Blood Glucose (mM) Mean (Study 2, db/db mice, 4 hr)","Delta Blood Glucose (mM) Mean (Study 2, db/db mice, 8 hr)","Delta Blood Glucose (mM) Mean (Study 2, db/db mice, 12 hr)","Delta Blood Glucose (mM) Mean (Study 2, db/db mice, 24 hr)","Body Wt. Change (%) 48 hr. vs. Baseline, Mean (Study 2, db/db mice, 48 hr)","Delta Blood Glucose (mM) Mean (Study 2, db/db mice, 48 hr)","Delta Blood Glucose (mM) Mean (Study 2, db/db mice, 72 hr)","Body Wt. Change (%) 96 hr. vs. Baseline, Mean (Study 2, db/db mice, 96 hr)","Delta Blood Glucose (mM) Mean (Study 2, db/db mice, 96 hr) [mM]",blood glucose reduction,body weight reduction,reduction in food consumption,further results
CC[C@H](NC(=O)[C@@H](NC(=O)[C@H](CO)NC(=O)[C@H](Cc1ccc(O)cc1)NC(=O)[C@H](CC(=O)O)NC(=O)[C@H](CO)NC(=O)[C@@H](NC(=O)[C@H](Cc1ccccc1)NC(=O)[C@@H](NC(=O)CNC(=O)[C@H](CCC(=O)O)NC(=O)C(C)(C)NC(=O)[C@@H](N)Cc1ccc(O)cc1)[C@@H](C)O)[C@@H](C)O)[C@@H](C)CC)C(=O)N[C@@H](CC(C)C)C(=O)N[C@@H](CC(=O)O)C(=O)N[C@@H](CCCCN)C(=O)N[C@H](C(=O)N[C@@H](C)C(=O)N[C@@H](CCC(N)=O)C(=O)N[C@@H](CCCCNC(=O)COCCOCCNC(=O)C(C)(C)NC(=O)CC[C@H](NC(=O)CCCCCCCCCCCCCCCCCCC(=O)O)C(=O)O)C(=O)N[C@@H](C)C(=O)N[C@@H](Cc1ccccc1)C(=O)N[C@H](C(=O)N[C@@H](CCC(N)=O)C(=O)N[C@@H](Cc1c[nH]c2ccccc12)C(=O)N[C@@H](CC(C)C)C(=O)N[C@H](C(=O)N[C@@H](C)C(=O)NCC(=O)NCC(=O)N1CCC[C@H]1C(=O)N[C@@H](CO)C(=O)N[C@@H](CO)C(=O)NCC(=O)N[C@@H](C)C(=O)N1CCC[C@H]1C(=O)N1CCC[C@H]1C(=O)N1CCC[C@H]1C(=O)N[C@@H](CO)C(N)=O)[C@@H](C)CC)C(C)C)[C@@H](C)CC [Compound 10],8.2*** g,20.5** g,0,−12.1*** mM,−13.6*** mM,,,,,,,,,,,,,,,,"Delta Blood Glucose (mM) Mean (Study 4, db/db mice, 12 hr): −14.7*** mM; Delta Blood Glucose (mM) Mean (Study 4, db/db mice, 24 hr): −15.6*** mM; Body Wt. Change (%) 48 hr. vs. Baseline, Mean (Study 4, db/db mice, 48 hr): −4.5*** %; Delta Blood Glucose (mM) Mean (Study 4, db/db mice, 48 hr): −4.0** mM; Delta Blood Glucose (mM) Mean (Study 4, db/db mice, 72 hr): 2.3 mM; Body Wt. Change (%) 96 hr. vs. Baseline, Mean (Study 4, db/db mice, 96 hr): −3.1*** %; Delta Blood Glucose (mM) Mean (Study 4, db/db mice, 96 hr): 1.7 mM"
"Compound 12: SEQ ID 12 polypeptide, Lys20 acylated with Moiety A (Y[Aib]EGTFTSDYSIILDKIAQK(Moiety A)AFVQWLIAGGPSSGAPPPS-NH2; reading uncertain)",10.2* g,26.0 g,0,−14.6*** mM,−14.8*** mM,,,,,,,,,,,,,,,,"Delta Blood Glucose (mM) Mean (Study 4, db/db mice, 12 hr): −14.9*** mM; Delta Blood Glucose (mM) Mean (Study 4, db/db mice, 24 hr): −4.8** mM; Body Wt. Change (%) 48 hr. vs. Baseline, Mean (Study 4, db/db mice, 48 hr): −3.0*** %; Delta Blood Glucose (mM) Mean (Study 4, db/db mice, 48 hr): 2.5 mM; Delta Blood Glucose (mM) Mean (Study 4, db/db mice, 72 hr): 3.9 mM; Body Wt. Change (%) 96 hr. vs. Baseline, Mean (Study 4, db/db mice, 96 hr): −0.4%; Delta Blood Glucose (mM) Mean (Study 4, db/db mice, 96 hr): 6.8 mM"
CC[C@H](C)[C@H](NC(=O)[C@H](CCCCN)NC(=O)[C@H](CC(=O)O)NC(=O)[C@H](CC(C)C)NC(=O)[C@H](CC(C)C)NC(=O)[C@@H](NC(=O)[C@H](CO)NC(=O)[C@H](Cc1ccc(O)cc1)NC(=O)[C@H](CC(=O)O)NC(=O)[C@H](CO)NC(=O)[C@@H](NC(=O)[C@H](Cc1ccccc1)NC(=O)[C@@H](NC(=O)CNC(=O)[C@H](CCC(=O)O)NC(=O)C(C)(C)NC(=O)[C@@H](N)Cc1ccc(O)cc1)[C@@H](C)O)[C@@H](C)O)[C@@H](C)CC)C(=O)N[C@@H](C)C(=O)N[C@@H](CCC(N)=O)C(=O)N[C@@H](CCCCNC(=O)COCCOCCNC(=O)C(C)(C)NC(=O)CC[C@H](NC(=O)CCCCCCCCCCCCCCCCCCC(=O)O)C(=O)O)C(=O)N[C@@H](C)C(=O)N[C@@H](Cc1ccccc1)C(=O)N[C@H](C(=O)N[C@@H](CCC(N)=O)C(=O)N[C@@H](Cc1c[nH]c2ccccc12)C(=O)N[C@@H](CC(C)C)C(=O)N[C@H](C(=O)N[C@@H](C)C(=O)NCC(=O)NCC(=O)N1CCC[C@H]1C(=O)N[C@@H](CO)C(=O)N[C@@H](CO)C(=O)NCC(=O)N[C@@H](C)C(=O)N1CCC[C@H]1C(=O)N1CCC[C@H]1C(=O)N1CCC[C@H]1C(=O)N[C@@H](CO)C(N)=O)[C@@H](C)CC)C(C)C [Compound 3] (H-Y[Aib]EGTFTSDYSILLDKIAQK([AEEA-Aib-γGlu-C20 diacid])AFVQWLIAGGPSSGAPPPS-NH2),,,,,,6.0*** g,16.0*** g,0,−10.3*** mM,−13.9*** mM,−15.8*** mM,−10.9*** mM,−5.6*** %,−6.6*** mM,0.1 mM,−4.9*** %,-0.7,statistically significant blood glucose reduction upto 96 hr post treatment,statistically significant reduction in food intake and body weight,statistically significant reduction in food intake,
"Compound 4: SEQ ID 07 polypeptide, Lys20 acylated with Moiety A (Y[Nva]EGTFTSDYSI[Nva]LDKIAQK(Moiety A)AFVQWLIAGGPSSGAPPPS-NH2; not fully specified; reading uncertain)",,,,,,4.6*** g,14.4*** g,0,−10.4*** mM,−13.3*** mM,−13.8*** mM,−4.9* mM,−3.8*** %,−3.7* mM,0.2 mM,−1.9** %,-1.9,statistically significant blood glucose reduction upto 96 hr post treatment,statistically significant reduction in food intake and body weight,statistically significant reduction in food intake,
CCC[C@H](NC(=O)[C@@H](NC(=O)[C@H](CO)NC(=O)[C@H](Cc1ccc(O)cc1)NC(=O)[C@H](CC(=O)O)NC(=O)[C@H](CO)NC(=O)[C@@H](NC(=O)[C@H](Cc1ccccc1)NC(=O)[C@@H](NC(=O)CNC(=O)[C@H](CCC(=O)O)NC(=O)C(C)(C)NC(=O)[C@@H](N)Cc1ccc(O)cc1)[C@@H](C)O)[C@@H](C)O)[C@@H](C)CC)C(=O)N[C@@H](CC(C)C)C(=O)N[C@@H](CC(=O)O)C(=O)N[C@@H](CCCCN)C(=O)N[C@H](C(=O)N[C@@H](C)C(=O)N[C@@H](CCC(N)=O)C(=O)N[C@@H](CCCCNC(=O)COCCOCCNC(=O)COCCOCCNC(=O)CC[C@H](NC(=O)CCCCCCCCCCCCCCCCCCC(=O)O)C(=O)O)C(=O)N[C@@H](C)C(=O)N[C@@H](Cc1ccccc1)C(=O)N[C@H](C(=O)N[C@@H](CCC(N)=O)C(=O)N[C@@H](Cc1c[nH]c2ccccc12)C(=O)N[C@@H](CC(C)C)C(=O)N[C@H](C(=O)N[C@@H](C)C(=O)NCC(=O)NCC(=O)N1CCC[C@H]1C(=O)N[C@@H](CO)C(=O)N[C@@H](CO)C(=O)NCC(=O)N[C@@H](C)C(=O)N1CCC[C@H]1C(=O)N1CCC[C@H]1C(=O)N1CCC[C@H]1C(=O)N[C@@H](CO)C(N)=O)[C@@H](C)CC)C(C)C)[C@@H](C)CC [Compound 6],,,,,,4.2*** g,16.0*** g,0,−15.6*** mM,−15.9*** mM,−16.3*** mM,−11.8*** mM,−5.5*** %,−9.5*** mM,−2.6* mM,−2.2** %,-1.6,statistically significant blood glucose reduction upto 96 hr post treatment,statistically significant reduction in food intake and body weight,statistically significant reduction in food intake,
